From PMC3399817 (PLoS ONE, 2012)

What was measured:
[1] = molecular target: T1, RPS6KA2(Kin.Dom.2-C-terminal) (Homo sapiens, UniProt Q15349); test: KINOMEscan; format: binding; conditions: 1 uM
T1 construct: RPS6KA2(Kin.Dom.2-C-terminal); purchased Ambit KINOMEscan (DiscoverX)
Method in brief: (§1)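 Compounds were each tested at a single concentration of 1 μM in a binding-based kinase panel.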

DLD-1 (K-RAS^G13D/+) = test: Cell cycle analysis (propidium iodide FACS); format: cell-based; conditions: DLD-1 cells
Experimental: (§2) Cell cycle analysis was performed via FACS-based propidium iodide quantification, using standard methods. To measure cell viability, cells were grown in 96-well plates in the presence or absence of drug for 72 hours, fixed with 4% paraformaldehyde, and then stained with Syto60 (Invitrogen). Plates were imaged and quantified using the LiCor Odyssey system (LiCor).

[2] = system: phospho-MEK1 (Ser217/Ser221) and phospho-ERK1/2 (Thr202/Tyr204, Thr185/Tyr187); test: Bio-Plex phospho-MEK1 and phospho-ERK1/2; format: cell-based; conditions: 45 minute exposure, 1 µM, K-RAS wild-type and mutant cells
Experimental: The Bio-Plex assay system was used to measure signaling in drug-treated cells. Briefly, cells were incubated in the presence of drug for various amounts of time and then lysed in Bio-Rad cell lysis buffer (Bio-Rad). Protein quantification was performed using BCA assay (Pierce) and 5 µg of protein from each sample was used for Bio-Plex analysis. Phospho-signaling assays were performed using available phospho-signaling assay kits and quantified on a Bio-Plex 200 system (Bio-Rad): p-Iκβα (Ser32/Ser36), p-JNK (Thr183/Tyr185), p-MEK1 (Ser217/Ser221), p-ERK1/2 (Thr202/Tyr204, Thr185/Tyr187), p-p90RSK (Thr359/Ser363), p-p38 (Thr180/Tyr182), p-c-JUN (Ser63), p-ATF2 (Thr71), p-AKT (Ser473), p-S6 (Ser235/Ser236), p-STAT3 (Ser727), p-STAT3 (Tyr705), and p-GSK3α/β (Ser21/Ser9). Bio-Plex assay for total MEK1 was also performed as a loading control.

CAMK2B = molecular target: T2, CAMK2B (Homo sapiens, UniProt Q13554); test: KINOMEscan; format: binding; conditions: 1 uM
T2 construct: purchased Ambit KINOMEscan (DiscoverX)
Method in brief: as §1

p38-delta = molecular target: T3, p38-delta (Homo sapiens, UniProt O15264); test: KINOMEscan; format: binding; conditions: 1 uM
T3 construct: purchased Ambit KINOMEscan (DiscoverX)
T3 sequence (O15264 whole entry): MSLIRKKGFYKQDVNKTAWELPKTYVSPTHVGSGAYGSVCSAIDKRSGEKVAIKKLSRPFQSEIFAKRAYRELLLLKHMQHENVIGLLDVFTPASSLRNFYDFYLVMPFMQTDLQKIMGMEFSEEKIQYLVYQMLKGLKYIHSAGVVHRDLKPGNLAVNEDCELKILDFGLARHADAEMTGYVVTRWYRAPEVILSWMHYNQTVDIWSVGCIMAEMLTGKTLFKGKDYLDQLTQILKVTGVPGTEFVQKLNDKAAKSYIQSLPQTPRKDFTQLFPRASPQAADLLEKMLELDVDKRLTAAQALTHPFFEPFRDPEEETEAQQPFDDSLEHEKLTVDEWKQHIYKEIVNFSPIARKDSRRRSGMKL
Method in brief: as §1

MST1R = molecular target: T4, MST1R (Homo sapiens, UniProt Q04912); test: KINOMEscan; format: binding; conditions: 1 uM
T4 construct: purchased Ambit KINOMEscan (DiscoverX)
T4 sequence (Q04912 25-1400): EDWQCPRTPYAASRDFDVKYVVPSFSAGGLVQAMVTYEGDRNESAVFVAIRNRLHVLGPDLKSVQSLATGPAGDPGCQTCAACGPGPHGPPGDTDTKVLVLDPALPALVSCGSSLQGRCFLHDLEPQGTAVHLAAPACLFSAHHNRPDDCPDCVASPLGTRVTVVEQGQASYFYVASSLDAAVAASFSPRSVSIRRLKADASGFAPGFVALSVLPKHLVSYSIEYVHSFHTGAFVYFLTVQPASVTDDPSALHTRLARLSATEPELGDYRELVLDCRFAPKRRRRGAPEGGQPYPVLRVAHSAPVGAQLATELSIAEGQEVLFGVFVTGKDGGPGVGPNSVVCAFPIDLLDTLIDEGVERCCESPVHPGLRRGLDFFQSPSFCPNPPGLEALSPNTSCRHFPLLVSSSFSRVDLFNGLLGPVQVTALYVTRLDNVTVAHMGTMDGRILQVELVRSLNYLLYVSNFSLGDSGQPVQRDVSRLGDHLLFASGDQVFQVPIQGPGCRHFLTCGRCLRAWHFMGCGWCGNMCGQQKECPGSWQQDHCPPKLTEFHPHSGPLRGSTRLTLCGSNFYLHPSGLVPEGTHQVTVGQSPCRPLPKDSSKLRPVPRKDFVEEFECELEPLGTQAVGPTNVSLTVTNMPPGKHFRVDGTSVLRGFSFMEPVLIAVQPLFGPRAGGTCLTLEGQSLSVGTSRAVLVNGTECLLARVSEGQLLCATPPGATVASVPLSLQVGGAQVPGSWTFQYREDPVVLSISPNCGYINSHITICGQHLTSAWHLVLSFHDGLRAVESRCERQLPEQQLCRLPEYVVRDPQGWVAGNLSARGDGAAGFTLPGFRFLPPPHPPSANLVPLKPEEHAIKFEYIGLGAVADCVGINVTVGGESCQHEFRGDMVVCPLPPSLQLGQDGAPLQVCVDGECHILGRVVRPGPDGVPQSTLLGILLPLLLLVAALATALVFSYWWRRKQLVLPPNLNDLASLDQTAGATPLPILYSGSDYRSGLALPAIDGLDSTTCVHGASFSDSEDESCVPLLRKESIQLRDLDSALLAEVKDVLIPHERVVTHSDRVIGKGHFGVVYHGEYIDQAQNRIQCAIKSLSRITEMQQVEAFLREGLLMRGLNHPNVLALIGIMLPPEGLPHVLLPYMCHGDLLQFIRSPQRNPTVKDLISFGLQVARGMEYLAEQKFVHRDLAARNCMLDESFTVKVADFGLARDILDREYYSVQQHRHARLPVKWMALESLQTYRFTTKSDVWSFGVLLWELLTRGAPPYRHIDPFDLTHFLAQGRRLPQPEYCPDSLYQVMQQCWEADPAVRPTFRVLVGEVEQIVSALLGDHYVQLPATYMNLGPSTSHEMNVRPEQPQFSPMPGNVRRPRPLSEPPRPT
Method in brief: as §1

NEK4 = molecular target: T5, NEK4 (Homo sapiens, UniProt P51957); test: KINOMEscan; format: binding; conditions: NEK4, 1 uM
T5 construct: purchased Ambit KINOMEscan (DiscoverX)
T5 sequence (P51957 whole entry): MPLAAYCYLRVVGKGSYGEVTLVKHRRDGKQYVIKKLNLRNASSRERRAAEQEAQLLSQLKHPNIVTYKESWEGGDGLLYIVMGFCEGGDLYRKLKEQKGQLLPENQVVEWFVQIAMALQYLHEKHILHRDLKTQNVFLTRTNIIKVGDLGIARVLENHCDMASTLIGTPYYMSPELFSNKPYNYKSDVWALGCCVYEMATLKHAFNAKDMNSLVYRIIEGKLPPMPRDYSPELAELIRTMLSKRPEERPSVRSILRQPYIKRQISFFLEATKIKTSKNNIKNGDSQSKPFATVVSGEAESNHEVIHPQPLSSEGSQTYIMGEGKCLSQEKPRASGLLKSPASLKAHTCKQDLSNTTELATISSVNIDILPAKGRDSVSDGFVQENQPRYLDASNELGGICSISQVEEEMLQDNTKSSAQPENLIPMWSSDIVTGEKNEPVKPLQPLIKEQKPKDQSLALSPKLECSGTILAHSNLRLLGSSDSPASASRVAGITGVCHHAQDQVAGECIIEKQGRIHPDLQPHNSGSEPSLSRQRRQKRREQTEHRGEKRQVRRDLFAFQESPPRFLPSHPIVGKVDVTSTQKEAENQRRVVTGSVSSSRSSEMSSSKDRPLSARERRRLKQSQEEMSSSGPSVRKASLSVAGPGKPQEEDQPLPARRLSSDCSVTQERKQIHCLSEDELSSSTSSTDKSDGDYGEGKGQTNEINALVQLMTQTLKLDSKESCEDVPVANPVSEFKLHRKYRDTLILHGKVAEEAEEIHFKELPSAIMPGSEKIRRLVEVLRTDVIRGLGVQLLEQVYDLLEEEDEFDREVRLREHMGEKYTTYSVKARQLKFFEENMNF
Method in brief: as §1

PIK3CA(H1047L) = molecular target: T6, PIK3CA(H1047L) (Homo sapiens, UniProt P42336, H1047L); test: KINOMEscan; format: binding; conditions: 1 uM
T6 construct: purchased Ambit KINOMEscan (DiscoverX)
Method in brief: as §1

TRPM6 = molecular target: T7, TRPM6 (Homo sapiens, UniProt Q9BX84); test: KINOMEscan; format: binding; conditions: TRPM6, 1 uM
T7 construct: purchased Ambit KINOMEscan (DiscoverX)
Method in brief: as §1

TLK2 = molecular target: T8, TLK2 (Homo sapiens, UniProt Q86UE8); test: KINOMEscan; format: binding; conditions: TLK2, 1 uM
T8 construct: purchased Ambit KINOMEscan (DiscoverX)
Method in brief: as §1

CLK1 = molecular target: T9, CLK1 (Homo sapiens, UniProt P49759); test: KINOMEscan; format: binding; conditions: CLK1, 1 uM
T9 construct: purchased Ambit KINOMEscan (DiscoverX)
Method in brief: as §1

EGFR(S752-I759del) = molecular target: T10, EGFR(S752-I759del) (Homo sapiens, UniProt P00533, DEL752-759); test: KINOMEscan; format: binding; conditions: 1 uM
T10 construct: purchased Ambit KINOMEscan (DiscoverX)
T10 sequence (P00533 with tags, fused parts or gaps DEL752-759 limits assumed): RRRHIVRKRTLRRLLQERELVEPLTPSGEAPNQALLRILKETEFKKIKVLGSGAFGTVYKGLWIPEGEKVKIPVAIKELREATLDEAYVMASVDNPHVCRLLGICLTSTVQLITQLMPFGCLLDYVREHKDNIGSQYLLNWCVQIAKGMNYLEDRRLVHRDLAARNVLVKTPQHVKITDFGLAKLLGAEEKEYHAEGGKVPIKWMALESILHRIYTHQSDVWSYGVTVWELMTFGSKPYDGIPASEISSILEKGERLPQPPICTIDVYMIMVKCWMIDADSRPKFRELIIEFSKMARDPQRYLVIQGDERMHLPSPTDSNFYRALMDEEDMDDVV
Method in brief: as §1

FLT3(K663Q) = molecular target: T11, FLT3(K663Q) (Homo sapiens, UniProt P36888, K663Q); test: KINOMEscan; format: binding; conditions: 1 uM
T11 construct: purchased Ambit KINOMEscan (DiscoverX)
Method in brief: as §1

KIT(A829P) = molecular target: T12, KIT(A829P) (Homo sapiens, UniProt P10721, A829P); test: KINOMEscan; format: binding; conditions: 1 uM
T12 construct: purchased Ambit KINOMEscan (DiscoverX)
Method in brief: as §1

FLT3(R834Q) = molecular target: T13, FLT3(R834Q) (Homo sapiens, UniProt P36888, R834Q); test: KINOMEscan; format: binding; conditions: 1 uM
T13 construct: purchased Ambit KINOMEscan (DiscoverX)
Method in brief: as §1

MKK7 = molecular target: T14, MKK7 (Homo sapiens, UniProt O14733); test: KINOMEscan; format: binding; conditions: MKK7, 1 uM
T14 construct: purchased Ambit KINOMEscan (DiscoverX)
T14 sequence (O14733 whole entry): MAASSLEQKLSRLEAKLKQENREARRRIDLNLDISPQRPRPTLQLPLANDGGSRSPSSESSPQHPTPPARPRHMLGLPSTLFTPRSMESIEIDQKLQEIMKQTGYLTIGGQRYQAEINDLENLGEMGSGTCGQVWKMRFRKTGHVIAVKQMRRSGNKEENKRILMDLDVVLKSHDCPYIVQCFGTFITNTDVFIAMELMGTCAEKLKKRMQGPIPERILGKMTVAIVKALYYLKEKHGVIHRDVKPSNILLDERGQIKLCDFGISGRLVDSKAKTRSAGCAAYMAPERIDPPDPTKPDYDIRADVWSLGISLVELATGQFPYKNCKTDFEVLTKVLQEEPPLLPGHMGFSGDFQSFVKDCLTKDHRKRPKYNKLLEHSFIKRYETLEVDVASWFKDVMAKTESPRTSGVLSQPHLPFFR
Method in brief: as §1

EIF2AK1 = molecular target: T15, EIF2AK1 (Homo sapiens, UniProt Q9BQI3); test: KINOMEscan; format: binding; conditions: EIF2AK1, 1 uM
T15 construct: purchased Ambit KINOMEscan (DiscoverX)
T15 sequence (Q9BQI3 whole entry): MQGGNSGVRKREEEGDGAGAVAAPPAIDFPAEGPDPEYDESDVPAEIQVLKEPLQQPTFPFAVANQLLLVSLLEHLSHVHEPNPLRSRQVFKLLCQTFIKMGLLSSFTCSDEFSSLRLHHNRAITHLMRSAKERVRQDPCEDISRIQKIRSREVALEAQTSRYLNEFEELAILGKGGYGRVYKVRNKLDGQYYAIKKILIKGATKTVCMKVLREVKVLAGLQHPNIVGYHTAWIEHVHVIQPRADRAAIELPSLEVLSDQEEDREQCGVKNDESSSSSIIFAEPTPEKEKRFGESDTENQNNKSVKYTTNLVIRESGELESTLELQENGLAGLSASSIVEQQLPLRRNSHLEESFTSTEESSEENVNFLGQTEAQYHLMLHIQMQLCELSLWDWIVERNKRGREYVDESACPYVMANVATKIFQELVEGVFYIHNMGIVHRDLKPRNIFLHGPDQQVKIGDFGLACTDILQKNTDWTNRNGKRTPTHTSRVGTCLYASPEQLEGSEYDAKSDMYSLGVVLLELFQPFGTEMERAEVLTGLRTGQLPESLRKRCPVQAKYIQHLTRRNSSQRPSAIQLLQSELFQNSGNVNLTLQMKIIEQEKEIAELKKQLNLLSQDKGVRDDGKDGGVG
Method in brief: as §1

RET = molecular target: T16, RET (Homo sapiens, UniProt P07949); test: KINOMEscan; format: binding; conditions: 1 uM
T16 construct: purchased Ambit KINOMEscan (DiscoverX)
Method in brief: as §1

CDKL1 = molecular target: T17, CDKL1 (Homo sapiens, UniProt Q00532); test: KINOMEscan; format: binding; conditions: CDKL1, 1 uM
T17 construct: purchased Ambit KINOMEscan (DiscoverX)
T17 sequence (Q00532 whole entry): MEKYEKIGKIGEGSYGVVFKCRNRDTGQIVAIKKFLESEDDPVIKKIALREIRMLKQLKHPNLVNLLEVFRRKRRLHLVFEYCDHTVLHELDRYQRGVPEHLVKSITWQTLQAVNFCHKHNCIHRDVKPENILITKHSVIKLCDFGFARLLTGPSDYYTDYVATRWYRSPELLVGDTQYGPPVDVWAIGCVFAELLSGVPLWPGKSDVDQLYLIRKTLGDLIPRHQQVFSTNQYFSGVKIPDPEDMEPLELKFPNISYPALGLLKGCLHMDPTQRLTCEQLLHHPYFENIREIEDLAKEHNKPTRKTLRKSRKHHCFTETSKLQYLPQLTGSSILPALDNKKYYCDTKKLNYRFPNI
Method in brief: as §1

NEK3 = molecular target: T18, NEK3 (Homo sapiens, UniProt P51956); test: KINOMEscan; format: binding; conditions: NEK3, 1 uM
T18 construct: purchased Ambit KINOMEscan (DiscoverX)
Method in brief: as §1

MTOR = molecular target: T19, MTOR (Homo sapiens, UniProt P42345); test: KINOMEscan; format: binding; conditions: 1 uM
T19 construct: purchased Ambit KINOMEscan (DiscoverX)
Method in brief: as §1

PFPK5(P.falciparum) = molecular target: T20, PFPK5(P.falciparum) (Plasmodium falciparum, UniProt P61075); test: KINOMEscan; format: binding; conditions: 1 uM
T20 construct: purchased Ambit KINOMEscan (DiscoverX)
Method in brief: as §1

CASK = molecular target: T21, CASK (Homo sapiens, UniProt O14936); test: KINOMEscan; format: binding; conditions: 1 uM
T21 construct: purchased Ambit KINOMEscan (DiscoverX)
Method in brief: as §1

MEK5 = molecular target: T22, MEK5 (Homo sapiens, UniProt Q13163); test: KINOMEscan; format: binding; conditions: MEK5, 1 uM
T22 construct: purchased Ambit KINOMEscan (DiscoverX)
Method in brief: as §1

CDK4-cyclinD3 = molecular target: T23, CDK4-cyclinD3 (Homo sapiens, UniProt P11802); test: KINOMEscan; format: binding; conditions: CDK4-cyclinD3, 1 uM
T23 construct: purchased Ambit KINOMEscan (DiscoverX)
T23 sequence (P11802 whole entry): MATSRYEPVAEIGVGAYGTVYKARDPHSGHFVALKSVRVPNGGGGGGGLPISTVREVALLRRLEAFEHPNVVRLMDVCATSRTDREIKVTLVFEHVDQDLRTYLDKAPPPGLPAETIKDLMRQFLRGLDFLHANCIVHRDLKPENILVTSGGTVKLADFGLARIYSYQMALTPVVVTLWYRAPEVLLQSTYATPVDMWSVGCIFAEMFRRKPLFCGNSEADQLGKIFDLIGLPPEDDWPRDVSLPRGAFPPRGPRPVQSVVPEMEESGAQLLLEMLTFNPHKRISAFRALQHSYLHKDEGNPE
T23 sequence (P30281 whole entry partner): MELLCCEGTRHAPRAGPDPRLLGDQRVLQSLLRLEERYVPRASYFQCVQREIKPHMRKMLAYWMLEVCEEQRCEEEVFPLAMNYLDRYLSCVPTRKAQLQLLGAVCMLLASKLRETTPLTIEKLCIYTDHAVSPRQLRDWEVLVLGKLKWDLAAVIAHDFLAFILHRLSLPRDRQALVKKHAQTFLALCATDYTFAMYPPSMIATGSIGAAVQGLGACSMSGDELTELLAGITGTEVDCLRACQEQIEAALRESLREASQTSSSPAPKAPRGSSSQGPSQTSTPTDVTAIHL
Method in brief: as §1

[3] = system: panel of colorectal cancer cell lines; test: Cell viability (Syto60) in a panel of colorectal cancer cell lines; format: cell-based; conditions: 72 hours, 3 cell lines expressing wild-type K-RAS
Experimental: as §2
Relative cell viability was normalized to an untreated control for each cell line. Error bars represent SEM for 3 independent experiments. […] (PDF) Click here for additional data file.

COc1ccc(-c2cc3nccn3c(Nc3ncccc3C(N)=O)n2)cc1OC.Cl.Cl [BAY61-3606, 2-[7-(3,4-dimethoxyphenyl)-imidazo [1,2-c]pyrimidin-5-ylamino] nicotinamide dihydrochloride, reference compound]
% binding compared to no inhibitor control [1]: 89% | apoptosis (DLD-1 (K-RAS^G13D/+)): nor did it induce apoptosis | cell cycle profile (DLD-1 (K-RAS^G13D/+); propidium iodide): did not alter the cell cycle profile | MEK and ERK phosphorylation [2]: unable to do so

COc1ccccc1Nc1nc(-c2ccc(OC)c(OC)c2)cc2nccn12 [BAY derivative 6]
% binding compared to no inhibitor control (CAMK2B): 100% | % binding compared to no inhibitor control (p38-delta): 100% | % binding compared to no inhibitor control (MST1R): 100% | % binding compared to no inhibitor control (NEK4): 85% | % binding compared to no inhibitor control (PIK3CA(H1047L)): 100% | % binding compared to no inhibitor control (TRPM6): 95% | % binding compared to no inhibitor control (TLK2): 100% | % binding compared to no inhibitor control (CLK1): 100% | % binding compared to no inhibitor control (EGFR(S752-I759del)): 72% | % binding compared to no inhibitor control (FLT3(K663Q)): 63% | % binding compared to no inhibitor control (KIT(A829P)): 35% | % binding compared to no inhibitor control (FLT3(R834Q)): 100% | % binding compared to no inhibitor control (MKK7): 86% | % binding compared to no inhibitor control (EIF2AK1): 88% | % binding compared to no inhibitor control (RET): 100% | % binding compared to no inhibitor control (CDKL1): 100% | % binding compared to no inhibitor control (NEK3): 100% | % binding compared to no inhibitor control (MTOR): 67% | % binding compared to no inhibitor control (PFPK5(P.falciparum)): 100% | % binding compared to no inhibitor control (CASK): 100% | % binding compared to no inhibitor control (MEK5): 100% | % binding compared to no inhibitor control (CDK4-cyclinD3): 95% | cell lines expressing wild-type K-RAS that responded [3]: 0/3
